# Values of other authors, collected in US6900176B2, “Pest control agents/depsipeptides” (priority 1999, dated 2005).
# Test system: silkworms
# Conditions: known from the literature (Kanaoka et al. 1979; JP 05 271 013)
row,SMILES,insecticidal activity against silkworms
1,CC(C)C[C@H]1C(=O)O[C@H](Cc2ccccc2)C(=O)N(C)[C@@H](CC(C)C)C(=O)O[C@H](C)C(=O)N(C)[C@@H](CC(C)C)C(=O)O[C@H](Cc2ccccc2)C(=O)N(C)[C@@H](CC(C)C)C(=O)O[C@H](C)C(=O)N1C [PF1022A],insecticidal activity
2,CC(C)C[C@H]1C(=O)O[C@H](C(C)C)C(=O)N(C)[C@@H](CC(C)C)C(=O)O[C@H](C(C)C)C(=O)N(C)[C@@H](CC(C)C)C(=O)O[C@H](C(C)C)C(=O)N(C)[C@@H](CC(C)C)C(=O)O[C@H](C(C)C)C(=O)N1C [bassianolide],insecticidal activity
